Measurements: the supplement of paper PMC10307832

Compound: O=C(Nc1cccc(C(F)(F)F)c1)Nc1cc(S(=O)(=O)NC2CC2)ccc1-c1ccsc1 [AGI-6780] + CC(=O)Nc1cccc(-n2c(=O)n(C3CC3)c(=O)c3c(Nc4ccc(I)cc4F)n(C)c(=O)c(C)c32)c1 [Trametinib] (partner 0.02 µM)
Experiment: relative viability (nuclei count vs DMSO), 5 days (fraction); higher = more cells survive
How it was run: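 Relative viability divides the nuclei count in treated wells by that in vehicle wells. Lung cancer cell lines were seeded in 1536-well plates, dosed by pin tool the next day, and fixed and stained after 5 days in one step with final 0.05% Triton X-100, 1% formaldehyde and 1 ug/ml Hoechst. Dosing was a single drug or a fixed anchor-drug dose plus five library-drug doses (not always all listed) in √10 steps, and values are medians of duplicate plates imaged at 4×.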

Row | Cell Line | relative viability (first compound 0.08 µM) | relative viability (first compound 0.253 µM) | relative viability (first compound 0.8 µM) | relative viability (first compound 2.53 µM) | relative viability (first compound 8 µM)
1 | 201T | 0.705 | 0.731 | 0.715 | 0.72 | 0.773
2 | A-427 | – | 0.7 | 0.797 | 0.559 | 0.725
3 | BEN | 0.897 | 0.999 | 1.14 | – | 0.993
4 | CAL-12T | 0.307 | 0.425 | 0.306 | 0.309 | 0.321
5 | COR-L23 | 0.601 | 0.536 | 0.529 | 0.379 | 0.568
6 | COR-L 105 | 0.465 | 0.576 | 0.464 | 0.397 | 0.351
7 | ChaGo-K-1 | 0.876 | 0.799 | 0.888 | 0.815 | 0.871
8 | EKVX | 0.32 | 0.383 | 0.392 | 0.386 | 0.312
9 | EMC-BAC-2 | – | 0.909 | 0.896 | 0.752 | 0.842
10 | EPLC-272H | 0.285 | 0.328 | 0.291 | 0.254 | 0.312
11 | H3255 | 0.595 | 0.592 | 0.668 | – | 0.609
12 | HARA | 1.02 | 0.638 | 0.685 | 0.707 | 0.628
13 | HCC-15 | 0.369 | 0.426 | 0.349 | 0.309 | 0.369
14 | HCC-44 | 1.08 | 0.993 | 1.1 | 0.994 | 1.07
15 | HCC-78 | 0.824 | 0.629 | 0.925 | 0.924 | 0.775
16 | HCC-366 | 0.395 | 0.375 | 0.365 | 0.156 | 0.301
17 | HCC-827 | 0.457 | 0.518 | 0.518 | 0.435 | 0.476
18 | HOP-62 | 0.366 | 0.321 | 0.316 | 0.321 | 0.396
19 | LC-2-ad | 0.917 | 0.873 | 0.931 | 0.964 | 0.917
20 | LCLC-97TM1 | 0.173 | 0.21 | 0.152 | 0.159 | 0.197
21 | LCLC-103H | 0.678 | 0.709 | 0.643 | 0.644 | 0.696
22 | LK-2 | 0.864 | 0.69 | 0.813 | 0.541 | 0.868
23 | LOU-NH91 | 0.826 | 0.777 | 0.765 | 0.751 | 0.824
24 | LU99A | 0.547 | 0.572 | 0.431 | 0.44 | 0.534

Row | Cell Line | relative viability (first compound 0.08 µM) | relative viability (first compound 0.253 µM) | relative viability (first compound 0.8 µM) | relative viability (first compound 2.53 µM) | relative viability (first compound 8 µM)
25 | LXF-289 | 0.722 | 0.683 | 0.657 | 0.74 | 0.683
26 | NCI-H23 | 0.394 | 0.39 | 0.375 | 0.272 | 0.494
27 | NCI-H322M | – | 0.525 | 0.525 | 0.547 | 0.499
28 | NCI-H358 | 0.139 | 0.174 | 0.132 | 0.112 | 0.136
29 | NCI-H441 | 0.554 | 0.49 | 0.553 | 0.422 | 0.51
30 | NCI-H460 | 0.286 | 0.149 | 0.117 | 0.1 | 0.167
31 | NCI-H520 | 0.652 | 0.628 | 0.58 | 0.593 | 0.666
32 | NCI-H596 | 0.841 | 0.712 | 0.655 | 0.652 | 0.777
33 | NCI-H647 | 0.499 | 0.505 | 0.476 | 0.45 | 0.474
34 | NCI-H650 | 0.989 | 1.07 | 0.935 | 0.823 | 0.964
35 | NCI-H661 | 0.671 | 0.61 | 0.558 | 0.542 | 0.62
36 | NCI-H727 | 0.415 | 0.396 | 0.372 | 0.365 | 0.38
37 | NCI-H838 | 0.505 | 0.517 | 0.481 | 0.474 | 0.531
38 | NCI-H1355 | 0.426 | 0.496 | 0.465 | 0.354 | 0.404
39 | NCI-H1395 | 0.984 | 1.01 | 1.04 | 0.975 | 1.06
40 | NCI-H1437 | 0.537 | 0.548 | 0.512 | 0.406 | 0.522
41 | NCI-H1648 | 0.47 | 0.53 | 0.377 | 0.409 | 0.433
42 | NCI-H1650 | 0.559 | 0.555 | 0.653 | 0.623 | 0.757
43 | NCI-H1651 | 0.816 | 0.82 | 0.833 | 0.73 | 0.839
44 | NCI-H1666 | 0.936 | 0.885 | 0.836 | 0.776 | 0.93
45 | NCI-H1734 | 0.74 | 0.646 | 0.63 | 0.474 | 0.758
46 | NCI-H1755 | 0.721 | 0.775 | 0.723 | 0.737 | 0.802
47 | NCI-H1792 | 0.532 | 0.332 | 0.611 | – | 0.483
48 | NCI-H1793 | 0.393 | 0.359 | 0.479 | 0.416 | 0.423

Row | Cell Line | relative viability (first compound 0.08 µM) | relative viability (first compound 0.253 µM) | relative viability (first compound 0.8 µM) | relative viability (first compound 2.53 µM) | relative viability (first compound 8 µM)
49 | NCI-H1915 | 0.314 | 0.304 | 0.298 | 0.246 | 0.274
50 | NCI-H1944 | 0.458 | 0.417 | 0.463 | – | 0.425
51 | NCI-H1975 | 0.369 | 0.348 | 0.29 | 0.207 | 0.322
52 | NCI-H1993 | 0.639 | 0.562 | 0.535 | – | 0.604
53 | NCI-H2009 | 0.264 | 0.272 | 0.243 | 0.202 | 0.225
54 | NCI-H2023 | 0.691 | 0.527 | 0.497 | 0.5 | 0.526
55 | NCI-H2085 | 0.651 | 0.581 | 0.526 | 0.666 | 0.735
56 | NCI-H2087 | 0.253 | 0.183 | 0.218 | 0.213 | 0.194
57 | NCI-H2126 | 0.613 | 0.601 | 0.507 | 0.479 | 0.566
58 | NCI-H2170 | 1.03 | 0.881 | 0.997 | – | 0.863
59 | NCI-H2228 | 0.447 | 0.508 | 0.505 | 0.307 | 0.607
60 | NCI-H2342 | 0.866 | 0.72 | 0.772 | 0.723 | 0.981
61 | NCI-H2347 | 0.276 | 0.289 | 0.278 | 0.287 | 0.274
62 | NCI-H2405 | – | 0.649 | 0.57 | 0.492 | 0.583
63 | NCI-H3122 | 0.212 | 0.261 | 0.239 | 0.208 | 0.329
64 | PC-3 [JPC-3] | – | 0.582 | 0.701 | 0.744 | 0.626
65 | PC-14 | 0.802 | 0.764 | 1.02 | 0.731 | 0.752
66 | RERF-LC-KJ | 0.859 | 0.862 | 0.828 | 0.674 | 0.774
67 | SK-LU-1 | 0.614 | 0.537 | 0.368 | 0.651 | 0.497
68 | SK-MES-1 | 0.549 | 0.577 | 0.509 | 0.532 | 0.493
69 | SW 1573 | 0.567 | 0.533 | 0.489 | – | 0.602
70 | UMC-11 | 0.657 | 0.708 | 0.812 | – | 0.902
